Data on 19 molecules can be found in patent US7470715B2, “Estrogen modulators” (Pfizer Inc., priority 2005, dated 2008).

Assay [1] deals with T1, ligand binding domain of the estrogen receptor alpha chain (ERαLBD) (Homo sapiens, UniProt P03372).
T1 construct: expressed in transfected cells; host or cells: Huh-7 human hepatoma cells, transient transfection with FuGENE 6
T1 sequence (P03372 311-547 limits assumed): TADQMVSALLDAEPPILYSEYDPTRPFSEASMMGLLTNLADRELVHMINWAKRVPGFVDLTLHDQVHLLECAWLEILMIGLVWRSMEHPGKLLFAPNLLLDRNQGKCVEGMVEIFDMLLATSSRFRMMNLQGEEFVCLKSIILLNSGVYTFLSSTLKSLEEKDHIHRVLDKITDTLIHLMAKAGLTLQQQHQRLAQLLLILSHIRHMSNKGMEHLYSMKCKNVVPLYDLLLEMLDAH
The assay can be described thus: ER agonist cell assay (ERα), Huh-7 co-transfection, luciferase. The class given is cell-based. Particulars: for EC50: Huh-7 cells co-transfected with pG5luc and ERαLBD, overnight incubation, luciferase; for ERα % of Max E2 Response: percent of the maximum estradiol fold change, Huh-7, pG5luc and ERαLBD. How it is done:
(§1) The compounds ability to mimic the effects of estrogen on the estrogen receptor were determined in a whole cell assay as described immediately below.
(§2) Experimental Procedure for ER Agonist Cell Assay
(§3) • Cell line and plasmids: The human hepatoma cell line Huh-7 was used for co-transfections. Cells were maintained in culture medium and split when they reached 80-90% confluency. Three plasmids were routinely used in the assay. pG5luc contained the firefly luciferase gene and was obtained from Promega. […] Cell Culture Media and Reagents:
(§4) Culture medium: DMEM (phenol red free), 10% charcoal treated HyClone serum, 1% L-glutamine, and 1% penicillin/streptomycin
(§5) Transfection medium: DMEM (phenol red free) and 10% charcoal treated HyClone serum
(§6) Luciferase reagents: Dual-Glo Luciferase Kit (Promega cat #E2980) was used for determination of luciferase activity.
(§7) Transient transfections were preformed using the lipophilic reagent FuGENE 6 (Roche). Cells were split and seeded at 7.2×10^6/150 cm^2 flask in 20 mL of transfection medium. 5-6 hrs later cells were co-transfected with either pG5luc and ERαLBD or pG5luc and ERβLBD(pm418). Transfected cells grew overnight and were then used the next day.
(§8) Cells transfected 24 hrs earlier were harvested, counted, and seeded in wells containing compound at a density of 1×10^4 cells/well. […] Cells were incubated overnight at 37° C. and 5% CO2 in the presence of compound. The following day medium was aspirated from the wells and 100 ul of Dual-Glo™ Luciferase Reagent were added to each well. Plates were incubated at room temperature for 20 minutes and firefly luminescence was measured on a luminometer. Next, 50 ul of Dual-Gbo™ Stop & Glo® Reagent were added to each well and after 20 minutes at room temperature the Renilla luminescence was measured on a luminometer. Values from each well were normalized by dividing the firefly luminescence by the Renilla luminescence. Estradiol was used as the standard and run in each assay. The fold induction over background for each compound was compared to the maximum fold induction for estradiol in each assay. […] Those compounds that were not tested, or the data was unavailable are marked as NT.

For assay [2], the target named is ligand binding domain of the estrogen receptor beta chain (ERβLBD) that contained a point mutation at amino acid residue 418 (pm418) (Homo sapiens, UniProt Q92731). Put plainly: ER agonist cell assay (ERβ), Huh-7 co-transfection, luciferase. The assay is classed as cell-based. Particulars: for EC50: Huh-7 cells co-transfected with pG5luc and ERβLBD(pm418), overnight incubation, luciferase; for ERβ % of Max E2 Response: percent of the maximum estradiol fold change, Huh-7, pG5luc and ERβLBD(pm418). How it is done: as §1, §2, §3, §4, §5, §6, §7, §8

Structures are written as SMILES.

Regarding `CC(C)C(O)C1(c2onc(-c3ccc(O)cc3)c2-c2ccccc2)CC1` (racemic) [Example 17, (±)-4-{5-[1-(1-Hydroxy-2-methyl-propyl)-cyclopropyl]-4-phenyl-isoxazol-3-yl}-phenol], in assay [1], the EC50 (commonly the concentration that produces a half-maximal response) turned out to be 34.4 nM and the “ERα % of Max E2 Response” value came out at 56.8%. Also, in assay [2], the midpoint of the response, the EC50, lay at 126 nM and the “ERβ % of Max E2 Response” value came out at 3.82%.
On the same counts, the results for `O=C(OC1CCCC1)C1(c2onc(-c3ccc(O)cc3)c2-c2ccccc2)CC1` [Example 89, 1-[3-(4-Hydroxy-phenyl)-4-phenyl-isoxazol-5-yl]-cyclopropanecarboxylic acid cyclopentyl ester] are 30.5 nM, 26%, more than 10000 nM and more than 2.93%.
For the molecule `CC(=O)C1(c2onc(-c3ccc(O)cc3)c2-c2ccccc2)CC1` [Example 101, 1-{1-[3-(4-Hydroxy-phenyl)-4-phenyl-isoxazol-5-yl]-cyclopropyl}-ethanone], in assay [1], the EC50 stood at 122 nM and the “ERα % of Max E2 Response” value was found to be 58.3%. The “ERβ % of Max E2 Response” value in assay [2] worked out at 13.6%.
On to `Cc1noc(C)c1C(=O)OCC1(c2onc(-c3ccc(O)cc3)c2-c2ccccc2)CC1` [Example 56], for which, in assay [1], the EC50 turned out to be 11.1 nM and the “ERα % of Max E2 Response” value was found to be 42.1%. For the same molecule, in assay [2], the EC50 came out at 30.6 nM and the “ERβ % of Max E2 Response” value worked out at 3%.
On to `COc1ccc(-c2nnc(C3(c4onc(-c5ccc(O)cc5)c4-c4ccccc4)CC3)o2)cc1` [Example 129, 4-(5-{1-[5-(4-methoxyphenyl)-1,3,4-oxadiazol-2-yl]cyclopropyl}-4-phenylisoxazol-3-yl)phenol], for which, in assay [1], the EC50 was not below 10000 nM and the “ERα % of Max E2 Response” value stood at 19.1%. For the same molecule, in assay [2], the EC50 is more than 10000 nM and the “ERβ % of Max E2 Response” value came to 0.625%.
With `Cc1ncccc1OCC1(c2onc(-c3ccc(O)cc3)c2-c2ccccc2)CC1` [Example 12, 4-{5-[1-(2-Methyl-pyridin-3-yloxymethyl)-cyclopropyl]-4-phenyl-isoxazol-3-yl}-phenol], in assay [1], the midpoint of the response, the EC50, lay at 354 nM and the “ERα % of Max E2 Response” value came out at 26.2%. The “ERβ % of Max E2 Response” value in assay [2] was found to be 0.577%.
Take `CC(C)C(C)NCC1(c2onc(-c3ccc(O)cc3)c2-c2ccccc2)CC1` (racemic) [Example 24, (±)-4-(5-{1-[(1,2-Dimethyl-propylamino)-methyl]-cyclopropyl}-4-phenyl-isoxazol-3-yl)-phenol]: in assay [1], it took 12.6 nM to reach a half-maximal effect (EC50) and the “ERα % of Max E2 Response” value amounted to 30.9%. In assay [2], the EC50 was more than 10000 nM and the “ERβ % of Max E2 Response” value is listed as more than 0.860%.
As to `Oc1ccc(-c2noc(C3(CSc4ccccc4)CC3)c2-c2ccccc2)cc1` [Example 40, 4-[4-Phenyl-5-(1-phenylsulfanylmethyl-cyclopropyl)-isoxazol-3-yl]-phenol], in assay [1], the midpoint of the response, the EC50, lay at 107 nM and the “ERα % of Max E2 Response” value was 39.5%. For the same molecule, in assay [2], the EC50 is 139 nM and the “ERβ % of Max E2 Response” value was determined as 1.12%.
As for `CC(=O)OCC1(c2onc(-c3ccc(O)cc3)c2-c2ccccc2)CC1` [Example 54], in assay [1], the EC50 came out at 38.8 nM and the “ERα % of Max E2 Response” value amounted to 60.4%. Moreover, in assay [2], the midpoint of the response, the EC50, lay at 108 nM and the “ERβ % of Max E2 Response” value is listed as 65.8%.
Consider `CC(=O)SCC1(c2onc(-c3ccc(O)cc3)c2-c2ccccc2)CC1` [Example 37, Thioacetic acid S-{1-[3-(4-hydroxy-phenyl)-4-phenyl-isoxazol-5-yl]-cyclopropylmethyl} ester], for which, in assay [1], the EC50 was 202 nM and the “ERα % of Max E2 Response” value was determined as 30.7%. Moreover, in assay [2], the EC50 was 302 nM and the “ERβ % of Max E2 Response” value turned out to be 4.3%.
Regarding `CCCCOC(=O)C1(c2onc(-c3ccc(O)cc3)c2-c2ccccc2)CC1` [Example 94, 1-[3-(4-Hydroxy-phenyl)-4-phenyl-isoxazol-5-yl]-cyclopropanecarboxylic acid butyl ester], in assay [1], the midpoint of the response, the EC50, lay at 29.3 nM and the “ERα % of Max E2 Response” value worked out at 24.3%. In assay [2], the EC50 is more than 10000 nM and the “ERβ % of Max E2 Response” value is listed as more than 0.800%.
For the molecule `Oc1ccc(-c2noc(C3(C(O)C4CC4)CC3)c2-c2ccccc2)cc1` (racemic) [Example 14, (±)-4-{5-[1-(Cyclopropyl-hydroxy-methyl)-cyclopropyl]-4-phenyl-isoxazol-3-yl}-phenol], in assay [1], the EC50 came out at 43 nM and the “ERα % of Max E2 Response” value turned out to be 45.4%. Moreover, in assay [2], the EC50 came to 136 nM and the “ERβ % of Max E2 Response” value came to 17.7%.
With `Oc1ccc(-c2noc(C3(c4nnc(-c5ccccc5O)o4)CC3)c2-c2ccccc2)cc1` [Example 122, 2-(5-{1-[3-(4-hydroxyphenyl)-4-phenylisoxazol-5-yl]cyclopropyl}-1,3,4-oxadiazol-2-yl)phenol], in assay [1], a half-maximal effect (EC50) was put at 71.5 nM and the “ERα % of Max E2 Response” value turned out to be 21.9%. For the same molecule, in assay [2], the EC50 is more than 10000 nM and the “ERβ % of Max E2 Response” value was more than 0.756%.
`CCOc1ccc(-c2nnc(C3(c4onc(-c5ccc(O)cc5)c4-c4ccccc4)CC3)o2)cc1` [Example 119, 4-(5-{1-[5-(4-ethoxyphenyl)-1,3,4-oxadiazol-2-yl]cyclopropyl}-4-phenylisoxazol-3-yl)phenol]: in assay [1], the concentration giving a half-maximal response (EC50) was found to be 469 nM and the “ERα % of Max E2 Response” value is 22.3%. Further, in assay [2], the EC50 was more than 10000 nM and the “ERβ % of Max E2 Response” value was more than 3.74%.
As for `COCC(=O)OCC1(c2onc(-c3ccc(O)cc3)c2-c2ccccc2)CC1` [Example 53], in assay [1], a half-maximal response (EC50) required 45.6 nM and the “ERα % of Max E2 Response” value is reported as 85.4%. Moreover, in assay [2], the EC50 amounted to 71.1 nM and the “ERβ % of Max E2 Response” value is 79%.
`CSCC1(c2onc(-c3ccc(O)cc3)c2-c2ccccc2)CC1` [Example 38, 4-[5-(1-Methylsulfanylmethyl-cyclopropyl)-4-phenyl-isoxazol-3-yl]-phenol]: in assay [1], the EC50 amounted to 1130 nM and the “ERα % of Max E2 Response” value is reported as 11.4%. In assay [2], the EC50 was determined as 749 nM and the “ERβ % of Max E2 Response” value stood at 6.6%.
With `O=C(OCC1CCC1)C1(c2onc(-c3ccc(O)cc3)c2-c2ccccc2)CC1` [Example 95, 1-[3-(4-Hydroxy-phenyl)-4-phenyl-isoxazol-5-yl]-cyclopropanecarboxylic acid cyclobutylmethyl ester], in assay [1], the midpoint of the response, the EC50, lay at 13.6 nM and the “ERα % of Max E2 Response” value came to 21.5%. Moreover, in assay [2], the EC50 is more than 10000 nM and the “ERβ % of Max E2 Response” value is reported as more than 0.728%.
Turning to `Oc1ccc(-c2nnc(C3(c4onc(-c5ccc(O)cc5)c4-c4ccccc4)CC3)o2)cc1` [Example 124, 4-(5-{1-[5-(4-hydroxyphenyl)-1,3,4-oxadiazol-2-yl]cyclopropyl}-4-phenylisoxazol-3-yl)phenol], in assay [1], a half-maximal response (EC50) required 152 nM and the “ERα % of Max E2 Response” value was 24.4%. Further, in assay [2], the EC50 was more than 10000 nM and the “ERβ % of Max E2 Response” value was more than 0.539%.
For the molecule `CNCC1(c2onc(-c3ccc(O)cc3)c2-c2ccccc2)CC1` [Example 103, 4-[5-(1-methylaminomethyl-cyclopropyl)-4-phenyl-isoxazol-3-yl]-phenol], the “ERα % of Max E2 Response” value in assay [1] was 10.2%. Also, in assay [2], the “ERβ % of Max E2 Response” value is recorded as 1.21%.
